# Source: publication PMC6720883, “In Vitro Inhibitory Effects of APINACA on Human Major Cytochrome P450, UDP-Glucuronosyltransferase Enzymes, and Drug Transporters” (Molecules, 2019)
# Experiments:
# OCT2 = molecular target: T1, OCT2 (Homo sapiens, UniProt O15244); assay: Uptake of [3-H]methyl-4-phenylpyridinium in HEK293-OCT2 cells; format: in vitro ADME; details: for Transport Rate (pmol/min) (mean ± SD): 0.1 μM probe substrate, n=3
# T1 construct: host or cells: HEK293 (transient overexpression)
# T1 sequence (O15244 1-555): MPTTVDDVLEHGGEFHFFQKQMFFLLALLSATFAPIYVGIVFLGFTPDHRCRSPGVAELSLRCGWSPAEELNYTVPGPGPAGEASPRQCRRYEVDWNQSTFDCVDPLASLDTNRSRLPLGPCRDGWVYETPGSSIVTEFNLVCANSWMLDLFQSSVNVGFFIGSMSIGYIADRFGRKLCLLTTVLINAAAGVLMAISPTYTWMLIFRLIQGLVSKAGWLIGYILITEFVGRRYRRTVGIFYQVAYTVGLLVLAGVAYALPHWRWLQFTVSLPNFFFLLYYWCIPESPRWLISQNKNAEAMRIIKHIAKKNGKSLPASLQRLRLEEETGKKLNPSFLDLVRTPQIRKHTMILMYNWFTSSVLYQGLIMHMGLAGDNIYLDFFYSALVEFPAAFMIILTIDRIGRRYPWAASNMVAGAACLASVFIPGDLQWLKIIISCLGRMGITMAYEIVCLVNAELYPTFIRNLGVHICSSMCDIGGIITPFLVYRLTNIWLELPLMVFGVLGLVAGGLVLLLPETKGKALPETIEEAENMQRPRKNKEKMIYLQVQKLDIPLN
# Procedure: (§1) To examine the effects of APINACA and typical inhibitors on transporter activity, the uptake of a probe substrate into HEK293 cells overexpressing the respective solute carrier transporters was measured in the presence of APINACA (final concentrations of 0–250 μM) or typical inhibitors for 5 min. The concentrations and probe substrates were selected as follows: 0.1 μM [3-H]MPP^+ (for OCT1 and OCT2), 0.1 μM [3-H]PAH (for OAT1), 0.1 μM [3-H]ES (for OAT3 and OATP1B1), and 0.1 μM [3-H]EG (for OATP1B3).
# (§2) 12.5 (Systat Software, Inc.; San Jose, CA, USA). […] 1.1 (Systat Software, Inc.).
# P-glycoprotein (P-gp) = P-glycoprotein (P-gp) (Homo sapiens, UniProt P08183); assay: B to A transport of [3-H]digoxin in LLC-PK1-MDR1 cells; details: for Transport Rate (pmol/min) (mean ± SD): 0.1 μM probe substrate, B to A, n=3
# Sequence of P-glycoprotein (P-gp) (P08183 whole entry): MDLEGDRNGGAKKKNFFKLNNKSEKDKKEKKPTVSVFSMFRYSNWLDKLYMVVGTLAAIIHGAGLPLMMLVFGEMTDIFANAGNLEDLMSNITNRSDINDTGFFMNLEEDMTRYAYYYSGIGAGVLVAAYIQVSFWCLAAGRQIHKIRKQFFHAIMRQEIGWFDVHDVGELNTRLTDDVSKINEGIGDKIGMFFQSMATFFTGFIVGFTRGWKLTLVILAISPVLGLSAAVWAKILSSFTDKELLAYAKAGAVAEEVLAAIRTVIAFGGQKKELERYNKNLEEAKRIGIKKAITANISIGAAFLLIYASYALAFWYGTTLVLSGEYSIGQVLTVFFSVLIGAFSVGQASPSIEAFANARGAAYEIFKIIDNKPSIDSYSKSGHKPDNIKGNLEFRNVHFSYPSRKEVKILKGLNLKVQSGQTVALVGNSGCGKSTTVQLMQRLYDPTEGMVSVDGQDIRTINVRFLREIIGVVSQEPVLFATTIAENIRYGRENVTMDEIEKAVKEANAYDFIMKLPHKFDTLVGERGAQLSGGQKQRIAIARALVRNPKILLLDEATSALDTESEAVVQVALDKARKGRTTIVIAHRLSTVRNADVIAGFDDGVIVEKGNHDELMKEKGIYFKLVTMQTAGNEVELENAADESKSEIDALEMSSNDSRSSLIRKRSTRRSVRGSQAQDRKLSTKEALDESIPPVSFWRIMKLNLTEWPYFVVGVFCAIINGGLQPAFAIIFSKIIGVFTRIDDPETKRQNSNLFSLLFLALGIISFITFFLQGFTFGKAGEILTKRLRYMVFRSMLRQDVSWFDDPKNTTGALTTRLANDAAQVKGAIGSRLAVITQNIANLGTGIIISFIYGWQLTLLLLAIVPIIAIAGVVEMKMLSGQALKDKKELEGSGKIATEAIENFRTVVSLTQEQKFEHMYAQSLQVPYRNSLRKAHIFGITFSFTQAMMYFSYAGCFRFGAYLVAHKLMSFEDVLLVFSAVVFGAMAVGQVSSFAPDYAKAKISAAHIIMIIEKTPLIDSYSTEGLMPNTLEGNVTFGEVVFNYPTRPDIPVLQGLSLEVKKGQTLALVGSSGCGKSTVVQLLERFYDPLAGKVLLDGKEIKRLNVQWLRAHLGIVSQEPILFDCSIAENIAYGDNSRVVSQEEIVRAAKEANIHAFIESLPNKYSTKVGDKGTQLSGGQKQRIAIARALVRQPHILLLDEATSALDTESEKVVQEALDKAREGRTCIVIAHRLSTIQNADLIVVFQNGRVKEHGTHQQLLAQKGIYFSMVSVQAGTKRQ
# Procedure: The cells were seeded onto filter membranes at a density of 2 × 10^5 cells/well for 5 days with TEER values over 450 Ω·cm^2. The B to A transport of 0.1 μM [3-H]digoxin in LLC-PK1-MDR1 cells was measured by adding 1.5 mL of HBSS containing APINACA (final concentrations of 0–100 μM) on the basal side and by adding 0.5 mL of HBSS without APINACA on the apical side of the insert using protocols identical to those described above.
# (§3) 1.1 (Systat Software, Inc.).
# BCRP = molecular target: T2, BCRP (Homo sapiens, UniProt Q9UNQ0); assay: B to A transport of [3-H]estrone-3-sulfate in LLC-PK1-BCRP cells; format: in vitro ADME; details: for Transport Rate (pmol/min) (mean ± SD): 0.1 μM probe substrate, B to A, n=3
# T2 sequence (Q9UNQ0 1-655): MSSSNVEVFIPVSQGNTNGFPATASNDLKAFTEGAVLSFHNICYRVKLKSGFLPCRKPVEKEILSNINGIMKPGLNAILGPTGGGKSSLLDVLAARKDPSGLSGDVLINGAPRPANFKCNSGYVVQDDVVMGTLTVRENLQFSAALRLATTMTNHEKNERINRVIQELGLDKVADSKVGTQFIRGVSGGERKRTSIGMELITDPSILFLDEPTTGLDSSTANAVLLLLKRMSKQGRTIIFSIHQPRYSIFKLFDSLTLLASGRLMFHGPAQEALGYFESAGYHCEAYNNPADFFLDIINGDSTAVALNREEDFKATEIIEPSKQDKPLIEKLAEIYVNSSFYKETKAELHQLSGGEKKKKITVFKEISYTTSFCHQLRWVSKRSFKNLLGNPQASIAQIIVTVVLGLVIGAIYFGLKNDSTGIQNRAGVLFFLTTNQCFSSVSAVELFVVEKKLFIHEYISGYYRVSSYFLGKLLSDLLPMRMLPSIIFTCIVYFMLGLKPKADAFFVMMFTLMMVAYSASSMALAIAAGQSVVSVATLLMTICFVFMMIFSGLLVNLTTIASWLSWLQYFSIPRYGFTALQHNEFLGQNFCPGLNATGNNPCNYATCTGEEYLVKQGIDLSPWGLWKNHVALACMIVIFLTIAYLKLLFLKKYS
# OATP1B1 = molecular target: T3, OATP1B1 (Homo sapiens, UniProt Q9Y6L6); assay: Uptake of [3-H]estrone-3-sulfate in HEK293-OATP1B1 cells; format: in vitro ADME; details: for Transport Rate (pmol/min) (mean ± SD): 0.1 μM probe substrate, n=3
# T3 construct: host or cells: HEK293 (transient overexpression)
# T3 sequence (Q9Y6L6 1-691): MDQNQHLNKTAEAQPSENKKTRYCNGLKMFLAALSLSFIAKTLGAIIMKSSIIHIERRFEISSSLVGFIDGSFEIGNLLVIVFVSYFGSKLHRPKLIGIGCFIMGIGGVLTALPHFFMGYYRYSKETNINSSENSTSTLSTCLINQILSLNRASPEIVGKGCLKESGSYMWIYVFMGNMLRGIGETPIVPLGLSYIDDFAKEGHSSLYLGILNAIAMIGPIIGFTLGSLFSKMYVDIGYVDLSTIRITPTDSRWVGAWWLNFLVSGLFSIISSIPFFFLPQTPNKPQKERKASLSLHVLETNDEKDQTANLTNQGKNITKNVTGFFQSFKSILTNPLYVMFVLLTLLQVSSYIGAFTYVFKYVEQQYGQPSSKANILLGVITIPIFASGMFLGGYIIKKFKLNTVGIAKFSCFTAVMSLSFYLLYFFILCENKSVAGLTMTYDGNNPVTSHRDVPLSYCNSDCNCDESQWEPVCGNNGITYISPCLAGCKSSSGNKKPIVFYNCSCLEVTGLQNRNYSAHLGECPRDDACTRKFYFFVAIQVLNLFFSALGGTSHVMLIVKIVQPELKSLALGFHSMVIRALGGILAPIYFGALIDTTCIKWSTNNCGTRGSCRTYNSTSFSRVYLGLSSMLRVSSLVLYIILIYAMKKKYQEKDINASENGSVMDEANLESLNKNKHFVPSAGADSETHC
# Procedure: as §1, §2
# OAT3 = molecular target: T4, OAT3 (Homo sapiens, UniProt Q8TCC7); assay: Uptake of [3-H]estrone-3-sulfate in HEK293-OAT3 cells; format: in vitro ADME; details: for Transport Rate (pmol/min) (mean ± SD): 0.1 μM probe substrate, n=3
# T4 construct: host or cells: HEK293 (transient overexpression)
# T4 sequence (Q8TCC7 1-542): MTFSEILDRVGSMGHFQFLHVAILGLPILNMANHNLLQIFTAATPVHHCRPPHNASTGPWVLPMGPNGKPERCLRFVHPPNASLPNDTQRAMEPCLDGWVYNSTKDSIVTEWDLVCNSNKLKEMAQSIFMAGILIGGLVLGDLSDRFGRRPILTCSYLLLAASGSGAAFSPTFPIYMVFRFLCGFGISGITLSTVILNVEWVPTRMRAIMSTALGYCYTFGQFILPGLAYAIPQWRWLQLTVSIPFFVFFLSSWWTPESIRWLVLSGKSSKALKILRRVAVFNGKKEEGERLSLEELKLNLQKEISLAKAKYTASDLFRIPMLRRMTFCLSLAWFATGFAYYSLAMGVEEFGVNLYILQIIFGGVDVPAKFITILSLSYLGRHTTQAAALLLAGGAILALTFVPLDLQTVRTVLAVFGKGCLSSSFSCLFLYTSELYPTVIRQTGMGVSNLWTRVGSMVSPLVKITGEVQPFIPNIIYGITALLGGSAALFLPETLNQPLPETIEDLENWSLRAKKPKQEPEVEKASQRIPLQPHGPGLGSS
# Procedure: The concentrations and probe substrates were selected as follows: 0.1 μM [3-H]MPP^+ (for OCT1 and OCT2), 0.1 μM [3-H]PAH (for OAT1), 0.1 μM [3-H]ES (for OAT3 and OATP1B1), and 0.1 μM [3-H]EG (for OATP1B3).
# as §3
# OCT1 = molecular target: T5, OCT1 (Homo sapiens, UniProt O15245); assay: Uptake of [3-H]methyl-4-phenylpyridinium in HEK293-OCT1 cells; format: in vitro ADME; details: for Transport Rate (pmol/min) (mean ± SD): 0.1 μM probe substrate, n=3
# T5 construct: host or cells: HEK293 (transient overexpression)
# T5 sequence (O15245 1-554): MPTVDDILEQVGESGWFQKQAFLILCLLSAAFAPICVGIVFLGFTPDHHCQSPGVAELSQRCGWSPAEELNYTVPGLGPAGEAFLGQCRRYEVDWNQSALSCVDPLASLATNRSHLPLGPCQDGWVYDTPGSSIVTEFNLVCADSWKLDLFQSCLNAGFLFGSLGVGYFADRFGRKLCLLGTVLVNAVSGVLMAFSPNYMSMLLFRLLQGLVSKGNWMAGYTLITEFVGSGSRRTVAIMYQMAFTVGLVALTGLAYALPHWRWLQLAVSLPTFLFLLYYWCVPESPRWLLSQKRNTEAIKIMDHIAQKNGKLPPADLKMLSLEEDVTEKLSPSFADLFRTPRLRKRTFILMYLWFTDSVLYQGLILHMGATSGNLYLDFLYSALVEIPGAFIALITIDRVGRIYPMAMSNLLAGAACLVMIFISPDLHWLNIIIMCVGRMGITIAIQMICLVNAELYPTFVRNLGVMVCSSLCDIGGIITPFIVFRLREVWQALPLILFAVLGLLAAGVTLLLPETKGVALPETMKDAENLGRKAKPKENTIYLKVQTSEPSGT
# Procedure: as §1, §2
smiles,measurement,setting,value
CN/C(=N/CCSCc1nc[nH]c1C)NC#N [Cimetidine],IC50,"OCT2; HEK293-OCT2 cells, 0.1 μM [3-H]methyl-4-phenylpyridinium, 5 min uptake, read-out: IC50 for inhibition of OCT2 transport",197 µM
C[C@H]1O[C@@H](O[C@H]2[C@@H](O)C[C@H](O[C@H]3[C@@H](O)C[C@H](O[C@H]4CC[C@@]5(C)[C@H](CC[C@@H]6[C@@H]5C[C@@H](O)[C@]5(C)[C@@H](C7=CC(=O)OC7)CC[C@]65O)C4)O[C@@H]3C)O[C@@H]2C)C[C@H](O)[C@@H]1O [Digoxin],Fold Increase of transport rate,P-glycoprotein (P-gp); LLC-PK1-MDR1 versus Mock,7.3
same,Transport Rate (pmol/min) (mean ± SD),P-glycoprotein (P-gp); LLC-PK1 Mock cells (comparison for MDR1),0.14 ± 0.02 pmol/min
same,Transport Rate (pmol/min) (mean ± SD),P-glycoprotein (P-gp); LLC-PK1 cells overexpressing MDR1 (P-gp),1.06 ± 0.07 pmol/min
C[C@]12CC[C@@H]3c4ccc(OS(=O)(=O)O)cc4CC[C@H]3[C@@H]1CCC2=O [Estrone-3-sulfate],Fold Increase of transport rate,BCRP; LLC-PK1-BCRP versus Mock,4.7
same,Transport Rate (pmol/min) (mean ± SD),BCRP; LLC-PK1 Mock cells (comparison for BCRP),0.44 ± 0.07 pmol/min
same,Transport Rate (pmol/min) (mean ± SD),BCRP; LLC-PK1 cells overexpressing BCRP,2.09 ± 0.12 pmol/min
same,Fold Increase of transport rate,OATP1B1; HEK293-OATP1B1 versus Mock,16.5
same,Transport Rate (pmol/min) (mean ± SD),OATP1B1; HEK293 Mock cells (comparison for OATP1B1),0.76 ± 0.04 pmol/min
same,Transport Rate (pmol/min) (mean ± SD),OATP1B1; HEK293 cells overexpressing OATP1B1,12.58 ± 1.57 pmol/min
same,Fold Increase of transport rate,OAT3; HEK293-OAT3 versus Mock,15.3
same,Transport Rate (pmol/min) (mean ± SD),OAT3; HEK293 Mock cells (comparison for OAT3),0.98 ± 0.20 pmol/min
same,Transport Rate (pmol/min) (mean ± SD),OAT3; HEK293 cells overexpressing OAT3,14.96 ± 3.09 pmol/min
C[n+]1ccc(-c2ccccc2)cc1 [Methyl-4-phenylpyridinium],Fold Increase of transport rate,OCT1; HEK293-OCT1 versus Mock,17.1
same,Transport Rate (pmol/min) (mean ± SD),OCT1; HEK293 Mock cells (comparison for OCT1),0.60 ± 0.09 pmol/min
same,Transport Rate (pmol/min) (mean ± SD),OCT1; HEK293 cells overexpressing OCT1,10.24 ± 0.98 pmol/min
same,Fold Increase of transport rate,OCT2; HEK293-OCT2 versus Mock,25.5
same,Transport Rate (pmol/min) (mean ± SD),OCT2; HEK293 Mock cells (comparison for OCT2),0.66 ± 0.11 pmol/min
same,Transport Rate (pmol/min) (mean ± SD),OCT2; HEK293 cells overexpressing OCT2,16.78 ± 0.43 pmol/min
